Measurements taken from patent publication US4593090A, “Novel nitrosourea compounds, method for preparing same, and pharmaceutical composition containing same” (Gogo Kimura, priority 1981, dated 1986).

How the values were obtained:
[1] = system: Leukemia L1210; assay: Activity against Leukemia L1210, intraperitoneal, increase in life span of mice; type: in vivo, female mice (BDF1 family); conditions: for ED (maximum ILS) / ED30: Mus musculus, L1210, ip; for ED (maximum ILS): read-out: O.D. (optimum dosage); for ED30: read-out: ILS30; for Survivors after 60 days / Max. ILS % / Therapeutic ratio TR: ip; for Survivors after 60 days: 6-membered group; for Max. ILS %: 60-day observation, versus control; for Therapeutic ratio TR: O.D./ILS30
Procedure, shortened: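 Female BDF1 mice (20 to 23 g, 6 per group) implanted ip with 1×10^5 L1210 cells; test compound given ip or orally once daily for 5 days starting 24 h later. ILS% from mean survival days vs untreated controls over 60 days; T.R. = O.D./ILS30.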

[2] = Acute toxicity (LD50, Behrens-Karber method); type: in vivo, ICR mice; conditions: ip, mortality during 30 days; for LD50 at 720 h: mouse, in vivo
Procedure: Test compounds, dissolved or suspended in 0.5% aqueous CMC, were each intraperitoneally administered to ICR mice in a dose of 0.1 ml per 10 g body weight. LD50 (mg/kg) value of each test compound was calculated from the mortality of mice during 30 days by the Behrens-Karber method.

[3] = ip once a day for 5 successive days, daily dosage giving maximum increase of life span
[4] = ip once a day for 5 successive days, daily dosage increasing average survival days by 30%

| SMILES | ED (maximum ILS) [1, 3] [mg/kg] | ED30 [1, 4] [mg/kg] | Survivors after 60 days [1] | Max. ILS % [1] [%] | Therapeutic ratio TR [1] | LD50 at 720 h [2] [mg/kg] | O.D. (optimum dosage) [1, 3] [mg/kg] | ILS30 [1, 4] [mg/kg] | LD50 ([2]; 43200 min) [mg/kg] |
| --- | --- | --- | --- | --- | --- | --- | --- | --- | --- |
| COCCCN(C(=O)N(CCCl)N=O)[C@@H]1CO[C@H](OC2CCCCC2)[C@@H](O)[C@@H]1O [Compound 160, 3-(3-methoxy-n-propyl)-3-(cyclohexyl α-D-arabinopyranose-4-yl)-1-(2-chloroethyl)-1-nitrosourea] | 180 | 3.1 | 6/6 | > 700 | 58.1 | 550 |  |  |  |
| CCCCO[C@H]1O[C@H](CO)[C@H](O)[C@H](O)[C@H]1N(C)C(=O)N(CCCl)N=O [Compound 118, 3-methyl-3-(n-butyl α-D-galactopyranose-2-yl)-1-(2-chloroethyl)-1-nitrosourea] | 130 | 4.45 | 3/6 | > 350 | 29.2 | 400 |  |  |  |
| CC(C)CN(C[C@H]1O[C@@H](OCCN2CCOCC2)[C@H](O)[C@@H](O)[C@@H]1O)C(=O)N(CCCl)N=O [Compound 199, 3-isobutyl-3-(2-morpholinoethyl β-D-glucopyranose-6-yl)-1-(2-chloroethyl)-1-nitrosourea] | 160 | 3.2 | 6/6 | > 700 | 50.0 | 520 |  |  |  |
| CCN(C(=O)N(CCCl)N=O)[C@H]1[C@@H](OCC(C)C)O[C@H](CO)[C@H](O)[C@@H]1O [Compound 121, 3-ethyl-3-(isobutyl α-D-galactopyranose-2-yl)-1-(2-chloroethyl)-1-nitrosourea] | 160 | 5.99 | 3/6 | > 350 | 26.7 | 480 |  |  |  |
| CCCCO[C@H]1O[C@H](CO)[C@@H](O)[C@H](O)[C@H]1N(CCCC)C(=O)N(CCCl)N=O [Compound 55, 3-n-butyl-3-(n-butyl α-D-glucopyranose-2-yl)-1-(2-chloroethyl)-1-nitrosourea] | 180 | 6.05 | 3/6 | > 350 | 29.8 | 465 |  |  |  |
| CCCCO[C@H]1O[C@H](CN(CCCC)C(=O)N(CCCl)N=O)[C@@H](O)[C@H](O)[C@H]1O [Compound 6, 3-n-butyl-3-(n-butyl α-D-glucopyranose-6-yl)-1-(2-chloroethyl)-1-nitrosourea] | 120 | 3 | 6/6 | > 700 | 40.0 | 390 |  |  |  |
| CC(C)CN(C(=O)N(CCCl)N=O)[C@H]1[C@@H](OC2CCCCC2)O[C@H](CO)[C@@H]1O [Compound 166, 3-isobutyl-3-(cyclohexyl α-D-xylofuranose-2-yl)-1-(2-chloroethyl)-1-nitrosourea] | 150 | 4.75 | 3/6 | > 345 | 31.6 | 450 |  |  |  |
| CCOCCO[C@H]1O[C@H](CN(CC(C)(C)C)C(=O)N(CCCl)N=O)[C@@H](O)[C@H](O)[C@H]1O [Compound 187, 3-neopentyl-3-(2-ethoxyethyl α-D-glucopyranose-6-yl)-1-(2-choroethyl)-1-nitrosourea] | 160 | 2.66 | 6/6 | > 700 | 60.2 | 510 |  |  |  |
| CCC(C)O[C@H]1O[C@H](CN(CCC(C)(C)C)C(=O)N(CCCl)N=O)[C@@H](O)[C@H](O)[C@H]1O (stereo partly drawn) [Compound 190, 3-(3,3-dimethyl-n-butyl)-3-(sec-butyl α-D-glucopyranose-6-yl)-1-(2-chloroethyl)-1-nitrosourea] | 150 | 3.12 | 6/6 | > 700 | 48.1 | 470 |  |  |  |
| COc1ccc(CO[C@H]2O[C@H](CN(C(=O)N(CCCl)N=O)C(C)(C)C)[C@@H](O)[C@H](O)[C@H]2O)cc1 [Compound 182, 3-tert-butyl-3-(p-methoxybenzyl α-D-glucopyranose-6-yl)-1-(2-chloroethyl)-1-nitrosourea] | 140 | 3.49 | 5/6 | > 620 | 40.1 | 420 |  |  |  |
| COCCCN(C(=O)N(CCCl)N=O)[C@H]1CO[C@@H](OCC(C)C)[C@H](O)[C@H]1O [Compound 154, 3-(3-methoxy-n-propyl)-3-(isobutyl α-L-arabinopyranose-4-yl)-1-(2-chloroethyl)-1-nitrosourea] | 160 | 2.85 | 5/6 | > 620 | 56.1 | 500 |  |  |  |
| CCCCN(C(=O)N(CCCl)N=O)C1C(O)C(CO)OC(OCCCOC)C1O [Compound 76, 3-n-butyl-3-(3-methoxy-n-propyl α-D-glucopyranose-3-yl)-1-(2-chloroethyl)-1-nitrosourea] | 200 | 5.21 | 3/6 | > 360 | 38.4 | 650 |  |  |  |
| CC(C)CN(C(=O)N(CCCl)N=O)[C@H]1[C@H](O)[C@H](OC2CCCCC2)O[C@@H]1CO [Compound 163, 3-isobutyl-3-(cyclohexyl β-D-arabinofuranose-3-yl)-1-(2-chloroethyl)-1-nitrosourea] | 160 | 4.91 | 3/6 | > 365 | 32.6 | 550 |  |  |  |
| CCC(COC)O[C@H]1O[C@H](CN(CC(C)(C)C)C(=O)N(CCCl)N=O)[C@@H](O)[C@H](O)[C@H]1O (stereo partly drawn) [Compound 196, 3-neopentyl-3-(1-methoxy-sec-butyl α-D-glucopyranose-6-yl)-1-(2-chloroethyl)-1-nitrosourea] |  |  | 6/6 | > 700 | 63.4 |  | 160 | 2.52 | 560 |
| O=NN(CCCl)C(=O)N(CCCCO)C[C@H]1O[C@H](OC2CCCCC2)[C@H](O)[C@@H](O)[C@@H]1O [Compound 43] | 160 | 4.68 | 4/6 | > 435 | 34.2 | 520 |  |  |  |
| CC(C)CO[C@H]1O[C@H](CN(Cc2ccco2)C(=O)N(CCCl)N=O)[C@@H](O)[C@H](O)[C@H]1O [Compound 24, 3-furfuryl-3-(isobutyl α-D-glucopyranose-6-yl)-1-(2-chloroethyl)-1-nitrosourea] | 180 | 3.1 | 5/6 | > 620 | 58.1 | 555 |  |  |  |
| O=NN(CCCl)C(=O)N(Cc1ccccc1)C[C@H]1O[C@H](OC2CCCCC2)[C@H](O)[C@@H](O)[C@@H]1O [Compound 46, 3-benzyl-3-(cyclohexyl α-D-glucopyranose-6-yl)-1-(2-chloroethyl)-1-nitrosourea] | 150 | 3.9 | 4/6 | > 425 | 38.5 | 510 |  |  |  |
